Data as given in patent US5849865A, “Peptides for altering bone resorption, angiogenesis and restenosis” (La Jolla Cancer Research Foundation, priority 1995, dated 1998).
Entries after “also recorded” stand apart in the source; their conditions may differ. Where a SMILES comes first, the peptide text is derived from it. Bridges are numbered along the chain shown (N, C = ends). [ ]: non-standard residue; d: D form. Tic = O=C(O)[C@@H]1Cc2ccccc2CN1; Pen = CC(C)(S)[C@H](N)C(=O)O; Mpa = O=C(O)CCS

What was measured:
[1] = target: T1, α5 β1 (FnR) (Homo sapiens, UniProt P05556+P08648); experiment: α5 β1 ELISA (competitive); format: binding; settings: comparison of receptor ELISAs
T1 construct: Fibronectin receptor (FnR) was purified from 100 mM octyl-glucopyranoside-extracted human placenta; from tissue
Experimental: Peptide binding to purified human α5 β1 (FnR) also as determined using a competitive ELISA. In these assays, […] was immobilized to the wells and the binding of solubilized FnR in the presence of various concentrations of a peptide analogue was determined using a mouse monoclonal antibody to human β1 (clone P4C10; Gibco) and specific binding was visualized using a second antibody.
Microtiter wells were coated at RT by adding 100 μl of 2 μg/ml human Fn in TBS and incubating the plates overnight at 4° C. Following incubation, the plates were washed 3× with TBS/"TWEEN 20". RGD peptides were diluted in TBS containing 20 mM OG and 2 mM MnCl2 and 50 μl was added to wells at 10-fold serial dilutions. FnR was diluted in the same buffer and 50 μl was added to each well.
The plates were incubated for 3 hr at RT and washed with 300 μl TBS/"TWEEN 20". Bound receptor was incubated with 100 μl of the monoclonal anti-β1 antibody for 2 hr, then washed 3× with TBS/"TWEEN 20". […] The amount of bound second antibody was determined as described above.
The IC50 values for various RGD peptides were calculated by determining the concentration of a peptide that inhibited binding of Vn to αv β5 or αv β3 or of Fn to α5 β1 by 50%. The results of these assays are shown in FIG. 2 (columns designated "Receptor Assays").

[2] = target: T2, αv β3 receptor (Homo sapiens, UniProt P05106+P06756); format: binding; settings: comparison of IC50 values of αv β3 ELISA / JY cells with αv β5 and α5 β1 ELISAs
T2 construct: The αv β3 receptor was purified from octyl-glucopyranoside-extracted human placenta; from tissue
Experimental: Peptide binding to purified αv β3 receptor was determined by using a competitive ELISA, in which αv β3 receptor was immobilized and the binding of solubilized VN, in the presence of various concentrations of peptide analogue, was detected using a monoclonal mouse IgG anti-VN antibody and a labelled anti-mouse IgG conjugate.
96 well microtiter plates were coated overnight at RT with 100 μl/well of αv β3 receptor (0.5 μg/ml in 1×TBS, 4 mM octylglucoside, 1 mM CaCl2). The wells were blocked with 200 μl/well of 1% BSA in 1×TBS, 1 mM CaCl2 for at least 30 min. The plates were washed 2× with 1×TBS, 1 mM CaCl2. 50 μl peptide in 1×TBS, 1 mM CaCl2, 0.05% "TWEEN 20" (polyoxyethylenesorbitan monolaurate) was added in 10-fold serial dilutions. 50 μl of Vn in the same buffer then was added to each well.
The plates were incubated for 3 hr at RT, then washed 3× with 1×TBS, 0.05% "TWEEN 20". 100 μl of 8E6 (Telios) diluted to 1:6000 in 1×TBS, 0.05% "TWEEN 20" was added to the wells and the plates were incubated for 1 hr at RT. Plates were washed 3× with 1×TBS, 0.05% "TWEEN 20". Affinity purified goat anti-mouse IgG conjugated to horseradish peroxidase (100 μl/well; BioRad; Hercules Calif.) was added to each well and incubated for 1 hr at RT. Plates were washed 3× with 1×TBS, 0.05% "TWEEN 20". 100 μl/well of substrate mixture (10 mg O-phenylenediamine in 25 ml 0.1M citrate-phosphate buffer, pH 5.0, 6 μl 30% H2 O2) was added to the plates and allowed to develop. The development process was stopped by adding 50 μl to 4N H2 SO4 to each well. The plates were read at 490 nm and the data analyzed by four parameter fit.

[3] = parathyroid hormone-induced hypercalcemia in mice; format: in vivo, Swiss-Webster mice; settings: parathyroidectomized mice, 0.2 mg PTH/kg i.v., peptide infused 4 hr
Text: Parathyroid hormone (PTH) activates osteoclasts, which are involved in bone resorption. Associated with the increased osteoclast activity is an increase in serum calcium. The PTH-induced hypercalcemia assay measures the level of serum calcium, which is an indication of bone resorption in a subject (Fischer et al., Endocrinology 132:1411-1413 (1993), which is incorporated herein by reference).
Swiss-Webster mice, which had been parathyroidectomized two weeks prior to beginning the assay, were obtained from Taconic Lab Animals and Services (Germantown N.Y.). Femoral vein catheters (PE-50 fused with PE10 polyethylene tubing; Becton Dickinson; Parsippany, N.J.) were installed in the mice, flushed and locked with heparinized saline (1:10), sutured to adjacent muscle and internalized within the inguinal space of the incision before closing the incision with wound clips. […]
The experiment was initiated by feeding the mice a calcium-deficient diet overnight, then injecting the mice the following morning with a bolus of 0.2 mg PTH/kg (hPTH 1-34; Bachem; Torrance Calif.), intravenously. […] Various doses of a peptide or vehicle were infused into an animal for 4 hr, then ionized serum calcium again was measured. […] Serum calcium measurements were expressed as the difference between the value 30 min before the PTH pulse and 4 hr after peptide infusion was started. […]

[4] = series of assays of Examples II and III for potency and selectivity
Text: Peptides of the RGDNTic (SEQ ID NO: 56) pharmacophore group are characterized, in general, as having increased potency, whereas the peptides of the pharmacophore RGDDV (SEQ ID NO: 1) group generally have higher receptor selectivity. […] As used herein, the term "potency" or "potent" means that a peptide of the invention is active at a relatively low concentration in the assays described in Examples II and III. A potent peptide of the invention can be identified, for example, using the assays described in Examples II and III.
The present invention also provides a series of in vitro and in vivo assays useful for screening a panel of peptides in order to identify peptides that can reduce or inhibit bone resorption or that can alter integrin binding such as αv β3 integrin receptor-mediated binding. Such peptides can include, for example, peptides within the pharmacophore groups exemplified herein or peptides within other pharmacophore groups. The series of assays disclosed herein is particularly useful for determining the selectivity and potency of a peptide for reducing or inhibiting bone resorption. The selectivity of a peptide for an integrin receptor involved in osteoclast binding to bone can be determined, for example, using the integrin receptor assays and cell attachment and detachment assays described herein. Use of cell-based assays in conjunction with receptor-based assays is informative because the receptor ELISAs provide useful information regarding the binding characteristics of a particular peptide toward a particular integrin and because the cell-based assays confirm that those characteristics are relevant to the αv β3 receptor or to bone resorption.

[5] = Choi et al. 1994; cited from earlier work
[6] = test system: osteoclasts; settings: Sato et al. 1990; EP 437,367; cited from earlier work
[7] = Fisher et al. 1993; cited from earlier work

C[C@H](NC(=O)[C@@H]1CSSC(C)(C)[C@H](NC(=O)CN)C(=O)N[C@@H](CCCNC(=N)N)C(=O)N[C@@H](C)C(=O)N[C@@H](CCCNC(=N)N)C(=O)NCC(=O)N[C@@H](CC(=O)O)C(=O)N[C@@H](CC(N)=O)C(=O)N2CCC[C@H]2C(=O)N1)C(=O)O [compound 100] (H-G[Pen]RARGDNPCA-OH; disulfide 2-10)
selectivity toward α5 β1 versus αv β5 [1]: more selective toward α5 β1 than toward αv β5

CC(C)[C@@H]1NC(=O)[C@H](CC(=O)O)NC(=O)[C@H](CC(=O)O)NC(=O)CNC(=O)[C@H](CCCNC(=N)N)NC(=O)[C@H](C)NC(=O)[C@H](CCCNC(=N)N)NC(=O)[C@@H](NC(=O)CN)C(C)(C)SSC[C@@H](C(=O)N[C@@H](C)C(=O)O)NC1=O [compound 138] (H-G[Pen]RARGDDVCA-OH; disulfide 2-10)
receptor selectivity for αv β3 as compared to αv β5 and α5 β1 [2]: particularly receptor selective

C[C@@H]1NC(=O)[C@H](C)NC(=O)[C@@H](NC(=O)CN)C(C)(C)SSC[C@@H](C(N)=O)NC(=O)[C@H]([C@@H](C)O)NC(=O)[C@H](CC(=O)O)NC(=O)[C@H](CC(=O)O)NC(=O)CNC(=O)[C@H](CCCNC(=N)N)NC1=O [compound 186] (H-G[Pen]AARGDDTC-NH2; disulfide 2-10)
receptor selectivity for αv β3 as compared to αv β5 and α5 β1 [2]: particularly receptor selective

CC(C)[C@@H]1NC(=O)[C@H](CC(=O)O)NC(=O)[C@H](CC(=O)O)NC(=O)CNC(=O)[C@H](CCCNC(=N)N)NC(=O)CCSSC[C@@H](C(N)=O)NC1=O [compound 191] ([Mpa]RGDDVC-NH2; disulfide 1-7)
PTH-induced rise in serum ionized calcium [3]: decreased the PTH-induced rise in serum ionized calcium in a dose responsive manner

CC(=O)N[C@H]1CSSC(C)(C)[C@@H](C(N)=O)NC(=O)[C@@H]2CCCN2C(=O)[C@H](CC(N)=O)NC(=O)[C@H](CC(=O)O)NC(=O)CNC(=O)[C@H](CCCNC(=N)N)NC1=O [compound 228] (Ac-CRGDNP[Pen]-NH2; disulfide 1-7)
receptor selectivity for αv β3 as compared to αv β5 and α5 β1 [2]: particularly receptor selective

C[C@H](NC(=O)[C@@H]1CSSC(C)(C)[C@H](NC(=O)CN)C(=O)N[C@@H](C)C(=O)N[C@@H](C)C(=O)N[C@@H](CCCNC(=N)N)C(=O)NCC(=O)N[C@@H](CC(=O)O)C(=O)N[C@@H](CC(N)=O)C(=O)N2CCC[C@H]2C(=O)N1)C(=O)O [compound 310] (H-G[Pen]AARGDNPCA-OH; disulfide 2-10)
selectivity toward α5 β1 versus αv β5 [1]: more selective toward α5 β1 than toward αv β5

C[C@@H]1NC(=O)[C@H](CCCNC(=N)N)NC(=O)CNC(=O)CC[C@@H](C(N)=O)NC(=O)[C@@H]2CCCN2C(=O)[C@H](CC(N)=O)NC(=O)[C@H](CC(=O)O)NC(=O)CNC(=O)[C@H](CCCNC(=N)N)NC1=O [compound 390] (GRARGDNPE-NH2; lactam N-9)
selectivity toward α5 β1 versus αv β5 [1]: more selective toward α5 β1 than toward αv β5

CC(=O)N[C@H]1CSSC[C@@H](C(N)=O)NC(=O)[C@@H]2Cc3ccccc3CN2C(=O)[C@H](CO)NC(=O)[C@H](CC(=O)O)NC(=O)CNC(=O)[C@H](CCCNC(=N)N)NC1=O [compound 812, Ac-CRGDS(Tic)C-NH2] (Ac-CRGDS[Tic]C-NH2; disulfide 1-7)
activity of minimal-element peptides (FIG. 2) [4]: demonstrate activity
potency (active at a relatively low concentration) ([4]; summary of assays): particularly potent

N=C(N)NCCC[C@@H]1NC(=O)CC[C@@H](C(N)=O)NC(=O)[C@@H]2CCCN2C(=O)[C@H](CO)NC(=O)[C@H](CC(=O)O)NC(=O)CNC1=O [compound 825] (RGDSPE-NH2; lactam N-6)
selectivity toward α5 β1 versus αv β5 [1]: more selective toward α5 β1 than toward αv β5

CC(=O)N[C@@H]1C(=O)N[C@@H](Cc2ccccc2)C(=O)N[C@@H](C)C(=O)N[C@@H](CCCNC(=N)N)C(=O)NCC(=O)N[C@@H](CC(=O)O)C(=O)N[C@@H](CC(N)=O)C(=O)N2CCC[C@H]2C(=O)N[C@H](C(N)=O)CSSC1(C)C [peptide 214] (Ac-[Pen]FARGDNPC-NH2; disulfide 1-9)
potency (active at a relatively low concentration) ([4]; summary of assays): particularly potent

CC(C)[C@@H]1NC(=O)[C@H](CC(=O)O)NC(=O)[C@H](CC(=O)O)NC(=O)CNC(=O)[C@H](CCCNC(=N)N)NC(=O)CNC(=O)C[C@@H](C(N)=O)NC1=O [peptide 368] (GRGDDVD-NH2; lactam N-7)
receptor selectivity for αv β3 as compared to αv β5 and α5 β1 [2]: receptor selective for αv β3; also recorded: selective peptide; also recorded: particularly receptor selective
both potent and selective ([4]; summary of assays): both potent and selective

G(Pen)GRGDSPCA
neointimal hyperplasia [5]: can inhibit neointimal hyperplasia

echistatin
bone resorption in vitro [6]: inhibits bone resorption in vitro
bone resorption in vivo [7]: inhibits bone resorption
